Measured values reported in US10344060B2 (priority 2013, dated 2019).
Values joined by “and” are separate entries in the source; they are usually repeats but may differ in a detail not shown here. Identical values can stand only once. “Also recorded” adds a separate entry of the source. Like-named read-outs stand apart in the source and are kept apart here.

Assays:
[1] = molecular target: T1, hNav1.5 (Homo sapiens, UniProt Q14524); test: cell-based; settings: IonWorks Quattro; Table 6; read-out: IC50 (μM) Nav1.5
T1 sequence (Q14524 whole entry): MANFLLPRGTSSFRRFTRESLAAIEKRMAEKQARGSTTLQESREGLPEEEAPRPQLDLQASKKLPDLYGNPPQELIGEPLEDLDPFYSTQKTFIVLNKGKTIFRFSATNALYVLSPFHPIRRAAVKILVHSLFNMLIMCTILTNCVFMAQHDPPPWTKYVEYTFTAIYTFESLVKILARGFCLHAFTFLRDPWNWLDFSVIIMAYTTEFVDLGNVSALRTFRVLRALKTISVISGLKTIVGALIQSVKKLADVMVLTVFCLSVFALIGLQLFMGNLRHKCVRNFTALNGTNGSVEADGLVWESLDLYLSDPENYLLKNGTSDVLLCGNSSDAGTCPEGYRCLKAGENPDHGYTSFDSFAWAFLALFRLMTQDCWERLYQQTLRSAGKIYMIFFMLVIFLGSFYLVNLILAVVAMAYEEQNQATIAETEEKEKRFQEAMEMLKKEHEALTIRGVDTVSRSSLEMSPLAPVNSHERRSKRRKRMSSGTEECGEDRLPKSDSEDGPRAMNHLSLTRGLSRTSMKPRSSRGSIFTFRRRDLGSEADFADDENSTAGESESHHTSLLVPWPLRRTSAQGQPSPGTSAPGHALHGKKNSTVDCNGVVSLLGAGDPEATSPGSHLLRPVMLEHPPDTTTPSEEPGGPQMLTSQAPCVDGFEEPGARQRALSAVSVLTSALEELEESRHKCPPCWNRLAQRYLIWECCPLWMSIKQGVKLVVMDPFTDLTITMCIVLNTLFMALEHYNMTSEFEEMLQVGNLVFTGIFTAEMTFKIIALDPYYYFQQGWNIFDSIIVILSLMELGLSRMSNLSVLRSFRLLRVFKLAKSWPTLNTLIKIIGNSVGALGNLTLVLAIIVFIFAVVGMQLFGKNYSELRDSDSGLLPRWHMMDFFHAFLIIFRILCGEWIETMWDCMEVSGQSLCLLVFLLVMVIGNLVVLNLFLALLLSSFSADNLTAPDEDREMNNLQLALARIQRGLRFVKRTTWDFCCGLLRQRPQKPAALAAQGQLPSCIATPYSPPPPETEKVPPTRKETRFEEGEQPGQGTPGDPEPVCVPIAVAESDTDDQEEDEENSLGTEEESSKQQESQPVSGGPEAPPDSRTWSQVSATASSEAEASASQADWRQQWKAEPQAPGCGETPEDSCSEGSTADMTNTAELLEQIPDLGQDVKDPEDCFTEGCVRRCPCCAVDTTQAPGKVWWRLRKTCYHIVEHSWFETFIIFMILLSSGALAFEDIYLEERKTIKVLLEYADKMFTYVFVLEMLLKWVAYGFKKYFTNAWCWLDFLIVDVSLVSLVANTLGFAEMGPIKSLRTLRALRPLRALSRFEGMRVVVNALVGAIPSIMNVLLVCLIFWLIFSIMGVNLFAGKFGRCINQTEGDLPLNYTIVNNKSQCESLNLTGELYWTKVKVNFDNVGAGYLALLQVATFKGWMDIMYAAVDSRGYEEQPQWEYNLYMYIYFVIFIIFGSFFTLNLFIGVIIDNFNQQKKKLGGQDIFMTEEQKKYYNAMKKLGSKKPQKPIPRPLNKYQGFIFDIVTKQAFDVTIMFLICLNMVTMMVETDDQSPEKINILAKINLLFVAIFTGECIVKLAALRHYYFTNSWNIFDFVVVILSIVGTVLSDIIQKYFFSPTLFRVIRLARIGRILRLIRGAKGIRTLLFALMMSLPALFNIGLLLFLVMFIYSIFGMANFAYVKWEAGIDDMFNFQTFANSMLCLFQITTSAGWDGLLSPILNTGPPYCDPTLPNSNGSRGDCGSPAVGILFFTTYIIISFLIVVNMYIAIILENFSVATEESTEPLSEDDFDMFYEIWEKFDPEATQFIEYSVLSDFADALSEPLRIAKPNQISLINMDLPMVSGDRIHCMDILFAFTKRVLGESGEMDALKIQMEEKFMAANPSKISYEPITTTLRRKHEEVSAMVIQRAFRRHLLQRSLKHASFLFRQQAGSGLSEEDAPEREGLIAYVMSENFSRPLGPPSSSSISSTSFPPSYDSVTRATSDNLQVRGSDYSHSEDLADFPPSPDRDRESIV

[2] = molecular target: T2, hNav1.7 (Homo sapiens, UniProt Q15858); test: cell-based; assay type: cell-based
T2 sequence (Q15858 whole entry): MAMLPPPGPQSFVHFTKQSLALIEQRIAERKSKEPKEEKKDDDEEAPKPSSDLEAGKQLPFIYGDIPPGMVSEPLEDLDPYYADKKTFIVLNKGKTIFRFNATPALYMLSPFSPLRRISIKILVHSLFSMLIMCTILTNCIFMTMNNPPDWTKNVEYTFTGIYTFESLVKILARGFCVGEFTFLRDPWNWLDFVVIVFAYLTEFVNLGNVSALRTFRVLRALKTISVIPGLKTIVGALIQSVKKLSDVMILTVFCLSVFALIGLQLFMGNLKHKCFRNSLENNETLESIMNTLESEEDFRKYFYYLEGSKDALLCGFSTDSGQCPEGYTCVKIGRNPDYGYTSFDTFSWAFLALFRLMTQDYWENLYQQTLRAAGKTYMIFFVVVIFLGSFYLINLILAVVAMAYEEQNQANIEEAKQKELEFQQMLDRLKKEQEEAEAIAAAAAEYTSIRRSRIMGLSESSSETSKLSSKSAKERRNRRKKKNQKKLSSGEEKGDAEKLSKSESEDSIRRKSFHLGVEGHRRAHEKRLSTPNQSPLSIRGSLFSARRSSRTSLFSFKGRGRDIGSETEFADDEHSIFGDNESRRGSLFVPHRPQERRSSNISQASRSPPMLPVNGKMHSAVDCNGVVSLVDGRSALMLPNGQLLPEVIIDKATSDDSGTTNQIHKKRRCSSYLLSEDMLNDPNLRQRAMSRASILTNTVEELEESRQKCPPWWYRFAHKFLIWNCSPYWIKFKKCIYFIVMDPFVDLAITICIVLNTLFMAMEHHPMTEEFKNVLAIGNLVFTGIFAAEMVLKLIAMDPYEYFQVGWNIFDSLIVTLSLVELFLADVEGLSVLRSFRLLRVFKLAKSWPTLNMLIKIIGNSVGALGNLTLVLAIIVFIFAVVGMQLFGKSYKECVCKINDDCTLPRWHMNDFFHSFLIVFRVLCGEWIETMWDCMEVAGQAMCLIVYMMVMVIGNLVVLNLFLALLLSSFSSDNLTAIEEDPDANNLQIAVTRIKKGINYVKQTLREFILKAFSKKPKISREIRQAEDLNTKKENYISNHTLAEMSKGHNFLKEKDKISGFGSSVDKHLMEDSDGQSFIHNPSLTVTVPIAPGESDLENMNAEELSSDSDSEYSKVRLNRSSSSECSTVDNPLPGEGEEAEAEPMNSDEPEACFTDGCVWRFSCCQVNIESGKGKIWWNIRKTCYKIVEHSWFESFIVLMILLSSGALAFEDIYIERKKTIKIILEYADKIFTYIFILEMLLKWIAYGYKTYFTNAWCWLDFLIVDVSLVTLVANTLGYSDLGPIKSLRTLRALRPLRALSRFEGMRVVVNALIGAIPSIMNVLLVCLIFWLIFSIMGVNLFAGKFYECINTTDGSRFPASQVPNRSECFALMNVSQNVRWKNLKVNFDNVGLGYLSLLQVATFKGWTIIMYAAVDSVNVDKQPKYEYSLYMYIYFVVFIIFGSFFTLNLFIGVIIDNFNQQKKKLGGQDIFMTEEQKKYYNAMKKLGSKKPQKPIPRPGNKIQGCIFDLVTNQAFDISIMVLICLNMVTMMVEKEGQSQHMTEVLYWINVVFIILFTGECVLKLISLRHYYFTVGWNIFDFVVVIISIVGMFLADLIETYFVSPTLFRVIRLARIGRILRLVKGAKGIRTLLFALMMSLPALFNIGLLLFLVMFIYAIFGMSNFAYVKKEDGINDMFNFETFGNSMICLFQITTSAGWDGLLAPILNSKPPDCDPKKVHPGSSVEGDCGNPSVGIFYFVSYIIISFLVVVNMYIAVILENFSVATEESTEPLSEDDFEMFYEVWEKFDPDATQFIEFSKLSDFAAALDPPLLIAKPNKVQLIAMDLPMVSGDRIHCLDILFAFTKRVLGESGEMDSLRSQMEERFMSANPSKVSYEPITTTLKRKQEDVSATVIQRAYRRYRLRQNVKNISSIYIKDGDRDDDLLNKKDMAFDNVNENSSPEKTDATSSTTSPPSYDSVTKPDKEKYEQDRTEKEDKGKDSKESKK

[3] = molecular target: hNav1.8 (Homo sapiens, UniProt Q9Y5Y9); test: cell-based; assay type: cell-based
[4] = system: hNav1.8; test: cell-based; assay type: cell-based, human; settings: hNav1.8 / hNav1.7
[5] = molecular target: T1, hNav1.5; test: cell-based; assay type: cell-based
[6] = molecular target: hNav1.4 (Homo sapiens, UniProt P35499); test: cell-based; assay type: cell-based; settings: 100 nM; held at −83 mV
[7] = molecular target: hNav1.3 (Homo sapiens, UniProt Q9NY46); test: cell-based; assay type: cell-based; settings: 300 nM; held at −80 mV
[8] = system: TTX-sensitive Nav channels in mouse DRG neuron; settings: for 1.x/1.7: mTTX-S / hNav1.7
[9] = system: TTX-resistant Nav channels in mouse DRG neuron
[10] = rat plasma, 37° C., incubation time 0 hr (normalization point)
[11] = molecular target: T2, hNav1.7; test: cell-based; settings: ratio of IonWorks Quattro IC50 values, Nav1.4 over Nav1.7
[12] = human plasma, 37° C., incubation 0 hr (normalisation point)
[13] = cyno plasma, 37° C., incubation 0 hr (normalisation point)
[14] = mouse plasma, 37° C., incubation 0 hr (normalisation point)

CC[C@H](C)[C@H](NC(=O)[C@@H](NC(=O)[C@H](CCCCN)NC(=O)[C@H](CCCNC(=N)N)NC(=O)[C@@H]1CSSC[C@@H]2NC(=O)[C@H](C)NC(=O)[C@H](CCCNC(=N)N)NC(=O)[C@H](CCCCN)NC(=O)[C@H](CO)NC(=O)[C@H](CC(=O)O)NC(=O)[C@@H]3CSSC[C@H](NC(=O)[C@H](CCCNC(=N)N)NC(=O)[C@H](CC(C)C)NC(=O)CNC(=O)[C@H](CCC(=O)O)NC(=O)[C@H](CSSC[C@H](NC(=O)[C@@H](N)Cc4ccc(O)cc4)C(=O)N[C@@H](CCC(N)=O)C(=O)N[C@@H](CCCCN)C(=O)N[C@@H](Cc4c[nH]c5ccccc45)C(=O)N[C@@H](CCSC)C(=O)N[C@@H](Cc4c[nH]c5ccccc45)C(=O)N[C@@H]([C@@H](C)O)C(=O)N3)NC2=O)C(=O)N[C@@H](CCCCN)C(=O)N[C@@H](CC(C)C)C(=O)N[C@@H](Cc2c[nH]c3ccccc23)C(=O)N1)[C@@H](C)CC)C(N)=O [compound 2]
IC50 [1]: 3 µM and 3.5 µM | inhibition of hNav1.7 current, in words ([2]; 1 nM as printed): complete inhibition | block of hNav1.7 current, in words ([2]; 1 μM): blocked all Nav1.7 current | block of TTX-resistant hNav1.8 current [3]: approximately 50% | inhibition of hNav1.8 current, in words [3]: only partial inhibition | 1.x/1.7 ([4]; fully non-inactivated): 5724 | 1.x/1.7 ([4]; partially inactivated): 3282 | block of hNav1.5 current, in words ([5]; 3 μM, held at −85 mV): blocked most Nav1.5 current; also recorded: nearly complete inhibition | IC50 ([5]; manual WCPC, ~20% inactivation, read-out: IC50 of hNav1.5 inhibition): 0.426 µM | block of hNav1.4 current, in words [6]: completely blocked Nav1.4 current; also recorded: complete inhibition | block of hNav1.3 current, in words [7]: completely blocked Nav1.3 current; also recorded: complete inhibition | 1.x/1.7 ([8]; fully non-inactivated): 530 | block of TTX-sensitive Nav current, in words ([8]; increasing concentrations, time course): blocked nearly all TTX-sensitive Nav current | 1.x/1.7 ([8]; partially inactivated): 111 | IC50 [9]: > 1 µM | IC50 of TTX-resistant sodium channel current inhibition [9]: not measurable

CC[C@H](C)[C@H](NC(=O)[C@H](CO)NC(=O)[C@H](CCCCN)NC(=O)[C@H](CCCNC(=N)N)NC(=O)[C@@H]1CSSC[C@@H]2NC(=O)[C@H](C)NC(=O)[C@H](CCCNC(=N)N)NC(=O)[C@H](CCCCN)NC(=O)[C@H](CO)NC(=O)[C@H](CC(=O)O)NC(=O)[C@@H]3CSSC[C@H](NC(=O)[C@H](CCC(=O)O)NC(=O)[C@H](CC(C)C)NC(=O)CNC(=O)[C@H](CCC(=O)O)NC(=O)[C@H](CSSC[C@H](NC(=O)[C@@H](N)Cc4ccc(O)cc4)C(=O)N[C@@H](CCC(N)=O)C(=O)N[C@@H](CCCCN)C(=O)N[C@@H](Cc4c[nH]c5ccccc45)C(=O)N[C@@H](CCSC)C(=O)N[C@@H](Cc4c[nH]c5ccccc45)C(=O)N[C@@H]([C@@H](C)O)C(=O)N3)NC2=O)C(=O)N[C@@H](CCCCN)C(=O)N[C@@H](CC(C)C)C(=O)N[C@@H](Cc2c[nH]c3ccccc23)C(=O)N1)C(N)=O [SEQ ID NO: 138, [Glu20,Ser28]JzTx-V(1-29)]
% Peptide Remaining [10]: 100%

CC[C@H](C)[C@H](NC(=O)[C@H](CO)NC(=O)[C@H](CCCCN)NC(=O)[C@H](CCCNC(=N)N)NC(=O)[C@@H]1CSSC[C@@H]2NC(=O)[C@H](C)NC(=O)[C@H](CCCNC(=N)N)NC(=O)[C@H](CCCCN)NC(=O)[C@H](CO)NC(=O)[C@H](CC(=O)O)NC(=O)[C@@H]3CSSC[C@H](NC(=O)[C@H](CCC(=O)O)NC(=O)[C@H](CC(C)C)NC(=O)CNC(=O)[C@H](CCC(=O)O)NC(=O)[C@H](CSSC[C@H](NC(=O)[C@@H](N)Cc4ccc(O)cc4)C(=O)N[C@@H](CCC(N)=O)C(=O)N[C@@H](CCCCN)C(=O)N[C@@H](Cc4c[nH]c5ccccc45)C(=O)N[C@@H](CCSC)C(=O)N[C@@H](Cc4c[nH]c5ccccc45)C(=O)N[C@@H]([C@@H](C)O)C(=O)N3)NC2=O)C(=O)N[C@@H](CCCCN)C(=O)N[C@@H](CC(C)C)C(=O)N[C@@H](Cc2c[nH]c3ccccc23)C(=O)N1)C(N)=O [compound 138]
Nav1.4/Nav1.7 [11]: 62 and 34 | % Peptide Remaining [12]: 100% | % Peptide Remaining [13]: 100% | % Peptide Remaining [14]: 100%
